Assay results reported in ChEMBL document CHEMBL3228017, “Apparent bioisosteric replacement of--S--by NCN: synthesis of N--cyano-2-aza-A-nor-5alpha-androstan-17beta-ol acetate, an aza steroid androgen” (1979).
Activity calls are given as the source filed them. The rule behind the calls is not given here.

Key:
[1] = organism: Rattus norvegicus; experiment: Androgenic activity in rat assessed as increase of ventral prostate weight at 0.3 mg (reference value: 18.1 +/- 0.91 mg); assay type: functional, Prostate gland
[2] = organism: Rattus norvegicus; experiment: Androgenic activity in rat assessed as increase of seminal vesicle weight at 0.3 mg (reference value: 11.4 +/- 0.38 mg); assay type: functional
[3] = organism: Rattus norvegicus; experiment: Myotrophic activity in rat assessed as increase of levator ani weight at 0.3 mg (reference value: 32.2 +/- 1.82 mg); assay type: functional
[4] = organism: Rattus norvegicus; experiment: Androgenic activity in rat assessed as increase in final body weight at 0.3 mg (reference value: 98 g); assay type: functional
[5] = organism: Rattus norvegicus; experiment: Myotrophic activity in rat assessed as increase of levator ani weight at 3 mg (reference value: 32.2 +/- 1.82 mg); assay type: functional
[6] = organism: Rattus norvegicus; experiment: Androgenic activity in rat assessed as increase of ventral prostate weight at 3 mg (reference value: 18.1 +/- 0.91 mg); assay type: functional, Prostate gland
[7] = organism: Rattus norvegicus; experiment: Androgenic activity in rat assessed as increase of ventral prostate weight at 3 mg in presence of testosterone (reference value: 18.1 +/- 0.91 mg); assay type: functional, Prostate gland
[8] = organism: Rattus norvegicus; experiment: Androgenic activity in rat assessed as increase of seminal vesicle weight at 3 mg (reference value: 11.4 +/- 0.38 mg); assay type: functional
[9] = organism: Rattus norvegicus; experiment: Androgenic activity in rat assessed as increase of seminal vesicle weight at 3 mg in presence of testosterone (reference value: 11.4 +/- 0.38 mg); assay type: functional
[10] = organism: Rattus norvegicus; experiment: Myotrophic activity in rat assessed as increase of levator ani weight at 3 mg in presence of testosterone (reference value: 32.2 +/- 1.82 mg); assay type: functional
[11] = organism: Rattus norvegicus; experiment: Androgenic activity in rat assessed as increase in final body weight at 3 mg (reference value: 98 g); assay type: functional
[12] = organism: Rattus norvegicus; experiment: Androgenic activity in rat assessed as increase in final body weight at 3 mg in presence of testosterone (reference value: 98 g); assay type: functional
[13] = organism: Rattus norvegicus; experiment: Antiandrogenic activity in rat assessed as reduction in ventral prostate weight at 3 mg; assay type: functional, organism-based; details: Prostate gland
[14] = organism: Rattus norvegicus; experiment: Antiandrogenic activity in rat assessed as reduction in seminal vesicle weight at 3 mg; assay type: functional, organism-based
[15] = organism: Rattus norvegicus; experiment: Antimyotrophic activity in rat assessed as reduction in levator ani weight at 3 mg; assay type: functional, organism-based
[16] = organism: Rattus norvegicus; experiment: Androgenic activity in rat assessed as increase of ventral prostate weight (reference value: 18.1 +/- 0.91 mg); assay type: functional, Prostate gland
[17] = organism: Rattus norvegicus; experiment: Androgenic activity in rat assessed as increase of seminal vesicle weight (reference value: 11.4 +/- 0.38 mg); assay type: functional
[18] = organism: Rattus norvegicus; experiment: Myotrophic activity in rat assessed as increase of levator ani weight (reference value: 32.2 +/- 1.82 mg); assay type: functional
[19] = organism: Rattus norvegicus; experiment: Androgenic activity in rat assessed as increase in final body weight (reference value: 98 g); assay type: functional

C[C@]12CC[C@H]3[C@@H](CCC4=CC(=O)CC[C@@]43C)[C@@H]1CC[C@@H]2O [TESTOSTERONE]
Activity [1]: 35.3 mg
Activity [2]: 12.9 mg
Activity [3]: 37.8 mg
Activity [4]: 97 g

CC(=O)O[C@H]1CC[C@H]2[C@@H]3CC[C@H]4CN(C#N)C[C@]4(C)[C@H]3CC[C@]12C
Activity [5]: 55.8 mg
Activity [6]: 56.1 mg
Activity [7]: 61.6 mg
Activity [8]: 33.3 mg
Activity [9]: 40.6 mg
Activity [10]: 58.7 mg
Activity [11]: 95 g
Activity [12]: 99 g
inhibition [13]: inactive
inhibition [14]: inactive
inhibition [15]: inactive

CC(=O)O[C@H]1CC[C@H]2[C@@H]3CC[C@H]4CN(Cc5ccccc5)C[C@]4(C)[C@H]3CC[C@]12C
Activity [16]: 19.4 mg
Activity [17]: 10.7 mg
Activity [18]: 24.2 mg
Activity [19]: 89 g
